Read-outs that look alike come from different tables or passages of the source.

Data set [1] concerns M.tb isolates. The format is cell-based, Mycobacterium tuberculosis.
Data set [2] has as its system M.tb isolates. The format is cell-based, Mycobacterium tuberculosis. The source holds these as a separate data set.
Data set [3] relates to rrs gene. Format: binding. The following applies: clinical DNA.
In data set [4] the test system is eis promoter region. Format: binding. Conditions: clinical DNA.
[5] abbreviates: eis promoter G(−10)A + NM (mixed).
The mark [6] stands for this setting: rrs-A1401G + eis C(−14)T double mutant.

As to `NCC[C@H](O)C(=O)N[C@@H]1C[C@H](N)[C@@H](O[C@H]2O[C@H](CN)[C@@H](O)[C@H](O)[C@H]2O)[C@H](O)[C@H]1O[C@H]1O[C@H](CO)[C@@H](O)[C@H](N)[C@H]1O` [AMK, Amikacin], in data set [1], the “Susceptibility (LJ)” value was “S and R”; the “Total number of isolates Susceptible (LJ)” value stood at 513.
Turning to `NC[C@H]1O[C@H](O[C@H]2[C@H](O)[C@@H](O[C@H]3O[C@H](CO)[C@@H](O)[C@H](N)[C@H]3O)[C@H](N)C[C@@H]2N)[C@H](O)[C@@H](O)[C@@H]1O` [KAN, Kanamycin], in data set [1], the “Susceptibility (LJ)” value is “S and R”; the “Total number of isolates Susceptible (LJ)” value is recorded as 497. Further, in data set [2], the “Susceptibility (MGIT)” value is “R and S”; the “Total number of isolates Susceptible (MGIT)” value was 447.
For “cacgACCGCCCGTCACGTCATGAAAGTCGGTcgtg (DNA CACGACCGCCCGTCACGTCATGAAAGTCGGTCGTG; molecular beacon, labels not given here, further chemistry not given here) [rrs-1400, SMB probe targeted against the rrs gene]”, the “Mean Tm” value in data set [3] (No mutation (NM), wild type) worked out at 70.1 °C; in data set [3] (eis promoter C(−8) deletion), 70.10 °C; in data set [3] (eis promoter C(−12)T), 70.15 °C; in data set [3] (eis promoter C(−14)T) it was 70.10 °C; in data set [3] (eis promoter G(−10)A), 70.20 °C; in data set [3] (setting [5]) it was 70.20 °C. For the same compound, the “Mean Tm” value in data set [3] (eis promoter G(−37)T) is 70.20 °C; in data set [3] (rrs gene A1401G), 66.20 °C; in data set [3] (rrs gene A1401G + NM (mixed, double Tm peak)) it was 66.20-70.10 °C; in data set [3] (rrs gene C1402T + NM (mixed, double Tm peak)), 64.50-70.10 °C; in data set [3] (setting [6]) it was 66.30 °C. Also, the “dTm (Tm difference of mutant from wild type)” value in data set [3] (eis promoter C(−8) deletion) was 0.00 °C; in data set [3] (eis promoter C(−12)T), −0.05 °C; in data set [3] (eis promoter C(−14)T), 0.00 °C; in data set [3] (eis promoter G(−10)A) it was −0.10 °C; in data set [3] (setting [5]), −0.10 °C; in data set [3] (eis promoter G(−37)T), −0.10 °C. Further, the “dTm (Tm difference of mutant from wild type)” value in data set [3] (rrs gene A1401G) is 3.9 °C; in data set [3] (rrs gene A1401G + NM (mixed)), 3.90 °C; in data set [3] (rrs gene C1402T + NM (mixed)), 5.6 °C; in data set [3] (setting [6]), 3.80 °C.
As for “ctcgcGGCATATGCCACAGTCGGATTCTcTGACgcgag (DNA CTCGCGGCATATGCCACAGTCGGATTCTCTGACGCGAG; molecular beacon, labels not given here, further chemistry not given here) [eis-2, SMB probe targeted against the eis promoter region]”, the “Mean Tm” value in data set [4] (No mutation (NM), wild type) is 69 °C; in data set [4] (No mutation (NM), wild type, listed as eis2), 69.00 °C; in data set [4] (eis promoter C(−8) deletion) it was 63.10 °C; in data set [4] (eis promoter C(−12)T) it was 62.92 °C; in data set [4] (eis promoter C(−14)T), 62.60 °C; in data set [4] (eis promoter G(−10)A), 64.70 °C. Further, the “Mean Tm” value is 64.80-69.10 °C in data set [4] (eis promoter G(−10)A + NM (mixed, double Tm peak for eis2)); 69.10 °C in data set [4] (eis promoter G(−37)T); 69.10 °C in data set [4] (rrs gene A1401G); 69.10 °C in data set [4] (rrs gene A1401G + NM (mixed)); 69.20 °C in data set [4] (rrs gene C1402T + NM (mixed)); 62.50 °C in data set [4] (setting [6]). Moreover, the “dTm (Tm difference of mutant from wild type)” value was 5.90 °C in data set [4] (eis promoter C(−8) deletion); 6.08 °C in data set [4] (eis promoter C(−12)T); 6.40 °C in data set [4] (eis promoter C(−14)T); 4.30 °C in data set [4] (eis promoter G(−10)A); 4.20 °C in data set [4] (setting [5]); −0.10 °C in data set [4] (eis promoter G(−37)T). Also, the “dTm (Tm difference of mutant from wild type)” value in data set [4] (rrs gene A1401G) was −0.10 °C; in data set [4] (rrs gene A1401G + NM (mixed)), −0.10 °C; in data set [4] (rrs gene C1402T + NM (mixed)), −0.20 °C; in data set [4] (setting [6]), 6.50 °C.
